Publication PMC11672540 (2024)
Blank lines part the entries; values can stand above or below the compound they belong to.

What was measured:
Test in all cases: ITC
[1] = system: MT2-R1 (DNA, aptamer, none) GGGACGACGCTAGGGGATCTTTTGGGGTTTGTATGGGCGTCGTCCC; details: 137 mM NaCl, 2.7 mM KCl, 1 mM MgCl2; 1x PBS, 23 °C
[2] = system: ML4 (DNA, aptamer, none) TTCAAATCTTGGTACGTTCTGCCTTTTCTTATTTTGCTTTGGGTTACCTAGTCTAGATTTGAA; details: 0.5x PBS (about 68 mM NaCl, 1.4 mM KCl), 5 mM MgCl2
[3] = system: ML12 (DNA, aptamer, none) TTCAAATCTGCGGCGACTAATTCTTAGTGGTGGTTGCAATGCGCTGGGATGAGTCTAGATTTGAA; details: 0.5x PBS (about 68 mM NaCl, 1.4 mM KCl), 5 mM MgCl2, 23 °C
[4] = system: ML13 (DNA, aptamer, none) TTCAAATCTGAGCAGCCTAGTTACTGACGGGTTTATAGTACTCGCACTGAGTCTAGATTTGAA; details: 0.5x PBS (about 68 mM NaCl, 1.4 mM KCl), 5 mM MgCl2, 23 °C
[5] = system: 84-nt aptaMETH (DNA, aptamer, none) ACTGGAGCTCAATCAGTACACGACGGTTGCAAGTGGGACTCTGGTAGGCTGGGTTAATTTGGGACAAGCTTCAACCATGGAGTA; details: 200 mM NaCl, 5 mM MgCl2; 20 mM Tris pH 7.4, 23 °C
[6] = system: Aptamer-2 (DNA, aptamer, none) AGGAATTCAGATCTCCCTGCAGGTGGTGTTTTTTTTGTGTGCTGTGTTTTTGTGATGCATGCTCGAGGAGCTCAGGATCCCG; details: 10 mM NaCl, 0.5 mM KCl, 0.2 mM MgCl2, 0.1 mM CaCl2; 2 mM Tris-HCl, 23 °C; very weak or no binding
[7] = system: MT2-R2 (DNA, aptamer, none) GGGACGACGAGGGGATCCATCCAATGGGGTTTGTATACGTCGTCCC; details: 137 mM NaCl, 2.7 mM KCl, 1 mM MgCl2; 1x PBS, 23 °C
[8] = system: MT2-R3 (DNA, aptamer, none) GGGACGACGGTACCCGCCGGTGCAGGATCTGGGGTGGTGTCGTCCC; details: 137 mM NaCl, 2.7 mM KCl, 1 mM MgCl2; 1x PBS, 23 °C
[9] = system: MT2-R4 (DNA, aptamer, none) GGGACGACGGCAATTGCCGGTGCAGGATCTGAATTATCGTCGTCCC; details: 137 mM NaCl, 2.7 mM KCl, 1 mM MgCl2; 1x PBS, 23 °C
[10] = system: M4 (DNA, aptamer, none) GGGACGACGCACTATGGCTAGGGTTGGTACGGTCGTGAACCGCGGGGTGTCGTCCC; details: 137 mM NaCl, 2.7 mM KCl, 1 mM MgCl2; 1x PBS, 23 °C
[11] = system: M13 (DNA, aptamer, none) GGGACGACGGCACGAGGTTATTCGTTGGTTGCACTGCGCTGGGAGGAAGTCGTCCC; details: 137 mM NaCl, 2.7 mM KCl, 1 mM MgCl2; 1x PBS, 23 °C; lowest KD of trial 3
[12] = system: ML3 (DNA, aptamer, none) TTCAAATCTTATGTACGTTCTATCGCATGGATGGGATTTTGGGTTACCTAGTCTAGATTTGAA; details: 0.5x PBS (about 68 mM NaCl, 1.4 mM KCl), 5 mM MgCl2; 0.5x PBS pH 7.4, 0.005% Triton X-100, 23 °C; 9.9 at 2 mM, 34.3 at 1 mM Mg2+
[13] = system: ML7 (DNA, aptamer, none) TTCAAATCTGGTGCCCTTTCGCAGTCGGTTGGTAATGAGATCACTTTAGAGTCTAGATTTGAA; details: 0.5x PBS (about 68 mM NaCl, 1.4 mM KCl), 5 mM MgCl2, 23 °C
[14] = system: ML10 (DNA, aptamer, none) TTCAAATCTGAGCAGCCTAGTTACTGACGGGTTTATAGTACTCACATTGAGTCTAGATTTGAA; details: 0.5x PBS (about 68 mM NaCl, 1.4 mM KCl), 5 mM MgCl2, 23 °C
[15] = system: ML11 (DNA, aptamer, none) TTCAAATCTGAGCAGCCTAGTTACTGACGGGTTTATAGTACTCGTATTGAGTCTAGATTTGAA; details: 0.5x PBS (about 68 mM NaCl, 1.4 mM KCl), 5 mM MgCl2, 23 °C
[16] = system: ML3-mut1 (DNA, aptamer, none) TTCAAATCTTATGTAAGTTCTATCGCATGGATGGGATTTTGGGTTACCTAGTCTAGATTTGAA; details: 0.5x PBS (about 68 mM NaCl, 1.4 mM KCl), 5 mM MgCl2, 0.005% Triton X-100, 23 °C
[17] = system: ML3-mut2 (DNA, aptamer, none) TTCAAATCTTATGTACGTACTATCGCATGGATGGGATTTTGGGTTACCTAGTCTAGATTTGAA; details: 0.5x PBS (about 68 mM NaCl, 1.4 mM KCl), 5 mM MgCl2, 0.005% Triton X-100, 23 °C
[18] = system: ML3-mut3 (DNA, aptamer, none) TTCAAATCTTATGTACGTTCTATCGCATGGATGTGATTTTGGGTTACCTAGTCTAGATTTGAA; details: 0.5x PBS (about 68 mM NaCl, 1.4 mM KCl), 5 mM MgCl2, 0.005% Triton X-100, 23 °C
[19] = system: ML3-mut4 (DNA, aptamer, none) TTCAAATCTTATGTACGTTCTATCGCATGGATGGGATTATGGGTTACCTAGTCTAGATTTGAA; details: 0.5x PBS (about 68 mM NaCl, 1.4 mM KCl), 5 mM MgCl2, 0.005% Triton X-100, 23 °C
[20] = system: ML3-mut5 (DNA, aptamer, none) TTCAAATCTTATGTACGTTCTATCGCATGGATGGGATTTTTGGTTACCTAGTCTAGATTTGAA; details: 0.5x PBS (about 68 mM NaCl, 1.4 mM KCl), 5 mM MgCl2, 0.005% Triton X-100, 23 °C, table says NA, 2000 titrant, 50 aptamer
[21] = system: ML3-mut6 (DNA, aptamer, none) TTCAAATCTTATGTACGTTCTATCGCATGGATGGGATTTTGGGTTACCAAGTCTAGATTTGAA; details: 0.5x PBS (about 68 mM NaCl, 1.4 mM KCl), 5 mM MgCl2, 0.005% Triton X-100, 23 °C, table says NA, 2000 titrant, 50 aptamer
[22] = system: ML4-mut1 (DNA, aptamer, none) TTCAAATCTTGGTACGTACTGCCTTTTCTTATTTTGCTTTGGGTTACCTAGTCTAGATTTGAA; details: 0.5x PBS (about 68 mM NaCl, 1.4 mM KCl), 5 mM MgCl2, 0.005% Triton X-100, 23 °C
[23] = system: ML4-mut2 (DNA, aptamer, none) TTCAAATCTTGGTACGTTCTGCATTTTCTTATTTTGCTTTGGGTTACCTAGTCTAGATTTGAA; details: 0.5x PBS (about 68 mM NaCl, 1.4 mM KCl), 5 mM MgCl2, 0.005% Triton X-100, 23 °C
[24] = system: ML4-mut3 (DNA, aptamer, none) TTCAAATCTTGGTACGTTCTGCCTATTCTTATTTTGCTTTGGGTTACCTAGTCTAGATTTGAA; details: 0.5x PBS (about 68 mM NaCl, 1.4 mM KCl), 5 mM MgCl2, 0.005% Triton X-100, 23 °C
[25] = system: ML4-mut4 (DNA, aptamer, none) TTCAAATCTTGGTACGTTCTGCCTTTACTTATTTTGCTTTGGGTTACCTAGTCTAGATTTGAA; details: 0.5x PBS (about 68 mM NaCl, 1.4 mM KCl), 5 mM MgCl2, 0.005% Triton X-100, 23 °C
[26] = system: ML4-mut5 (DNA, aptamer, none) TTCAAATCTTGGTACGTTCTGCCTTTTCTTATATTGCTTTGGGTTACCTAGTCTAGATTTGAA; details: 0.5x PBS (about 68 mM NaCl, 1.4 mM KCl), 5 mM MgCl2, 0.005% Triton X-100, 23 °C
[27] = system: ML4-mut6 (DNA, aptamer, none) TTCAAATCTTGGTACGTTCTGCCTTTTCTTATTTAGCTTTGGGTTACCTAGTCTAGATTTGAA; details: 0.5x PBS (about 68 mM NaCl, 1.4 mM KCl), 5 mM MgCl2, 0.005% Triton X-100, 23 °C
[28] = system: ML4-mut7 (DNA, aptamer, none) TTCAAATCTTGGTACGTTCTGCCTTTTCTTATTTTGCTATGGGTTACCTAGTCTAGATTTGAA; details: 0.5x PBS (about 68 mM NaCl, 1.4 mM KCl), 5 mM MgCl2, 0.005% Triton X-100, 23 °C

KD [1]: 5.7 ± 0.2 µM | KD ([2]; 0.5x PBS, 23 °C): 117 ± 4 µM | KD [3]: 18.2 ± 0.5 µM | KD ([4]; double titration): 140 ± 3.9 µM
Structure (SMILES): CC(N)Cc1ccccc1 (stereo not shown)

KD ([2]; 0.5x PBS, 23 °C): 344 ± 23 µM
Structure (SMILES): CCCC(C(=O)c1ccc2c(c1)OCO2)N1CCCC1 (stereo not shown)

KD ([2]; 0.5x PBS, 23 °C): 255 ± 8 µM
Structure (SMILES): CNC(C)Cc1ccc(O)cc1 (stereo not shown)

KD ([2]; 0.5x PBS, 23 °C): 223 ± 8 µM
Structure (SMILES): CNC(C)Cc1ccc2c(c1)OCO2 (stereo not shown)

KD [5]: 364 ± 28 µM | KD [6]: > 1000 µM | KD [1]: 2.5 ± 0.1 µM | KD [7]: 5.0 ± 0.1 µM | KD [8]: 18.0 ± 1.1 µM | KD [9]: 10.1 ± 0.7 µM | KD [10]: 12 µM | KD [11]: 3.3 µM | KD [12]: 1.5 ± 0.1 µM | KD ([2]; 0.5x PBS pH 7.4, 0.005% Triton X-100, 23 °C, 16.2 at 2 mM, 65.2 at 1 mM Mg2+): 2.5 ± 0.1 µM | KD [13]: 1.30 ± 0.03 µM | KD [14]: 1.9 ± 0.1 µM | KD [15]: 2.4 ± 0.1 µM | KD [3]: 5.7 ± 0.3 µM | KD [4]: 7.0 ± 0.4 µM | KD [16]: 408 ± 16 µM | KD [17]: 39.0 ± 1.8 µM | KD [18]: 1.4 ± 0.1 µM | KD [19]: 72.5 ± 3.1 µM | KD [20]: > 1000 µM | KD [21]: > 1000 µM | KD [22]: 67.1 ± 4.1 µM | KD [23]: 4.0 ± 0.1 µM | KD [24]: 3.2 ± 0.1 µM | KD [25]: 4.9 ± 0.2 µM | KD [26]: 3.3 ± 0.1 µM | KD [27]: 3.8 ± 0.1 µM | KD [28]: 64.3 ± 3.9 µM
Structure (SMILES): CN[C@@H](C)Cc1ccccc1

KD ([2]; 0.5x PBS, 23 °C): 372 ± 24 µM
Structure (SMILES): CN[C@@H](C)[C@@H](O)c1ccccc1

KD [5]: > 1000 µM | KD [6]: > 1000 µM | KD ([2]; 0.5x PBS, 23 °C): 450 ± 21 µM
Structure (SMILES): CN[C@H](C)Cc1ccccc1

KD ([2]; 0.5x PBS, 23 °C): 749 ± 10 µM
Structure (SMILES): COC(=O)C(c1ccccc1)C1CCCCN1 (stereo not shown)
